Assay results: US20070275005A1, “Use of Lipopeptides for Activating T Lymphocytes Through the Skin” (TX-CELL, priority 2003, published 2007)
Where no end group is shown, it is not given here.

Tests used:
[1] = test system: OVA-specific DO11-10 T cells; test: In vivo activation of T lymphocytes by cutaneous lipopeptide application on the ear (FACS of draining lymph node); parameters: species or system BALB/c mice; conditions: daily 20 μl of 50 μM on the ear, vs olive oil; FIG. 1
Description: Lipopeptide activates T lymphocytes in vivo. BALB/c mice were injected intravenously with 20×10^6 DO11-10 TCR-anti OVA transgenic splenocytes. Mice where then treated during 4 days by applying daily 20 μl of 50 μM OVA323-339-lipopeptide or the vehicle directly on one ear. At day five, mice were sacrificed, the draining lymph node and the contra-lateral node cells were stained with the anti-idiotype KJ1-26 recognizing specifically DO11-10 T lymphocytes, anti-CD4 and anti-CD25 antibody. FACS analysis is shown for lymph node cells gated on CD4^+ T lymphocytes.
To analyze the potential curative effect of Tr1 cells in a different inflammatory model, the inventors set up skin inflammation experiments using the hapten oxazolone in three daily applications (FIG. 1). Because Tr1 cells need to be activated at the site of inflammation, they first tested the ability of cutaneous application of lipo-Ova peptide to stimulate T cells. BALB/c mice were injected with naive OVA-specific DO11-10 T cells and mice were treated during […] by applying daily 20 μl of 50 μM OVA323-339-lipopeptide or olive oil directly on the ear. […] In that model, three days after the induction of ear inflammation with oxazolone, the mice were treated with OVA-specific Th1, Th2 or Tr1 T-cell populations or a Tr1 cell clone (FIG. 2) and the lipo-OVA peptide was applied for 6 days.

[2] = test system: CD4+ mediated humoral response; test: Enhancement of a CD4+ mediated humoral response (serum Ovalbumin-specific IgE); assay type: in vivo, Balb/C mice; conditions: mice immunised i.p. with 25 μg Ovalbumin in Alumn; 1 mg lipopeptide on skin for 3 days; day 20; FIG. 5
Description: (§1) TRP2180-188 lipopeptide and OVA323-339-lipopeptide were diluted at 10 mg/ml in olive oil. Mice were treated during by applying 1 mg lipopeptide or olive oil directly on shaved abdominal skin.
(§2) Sandwich ELISA was used to measure IFN-γ. In brief, ELISA plates (Polylabo, France) were coated with the appropriate coating mAbs (monoclonal antibodies) in carbonate buffer and incubated at 4° C. overnight. Plates were blocked for 30 mn at room temperature with 150 μl of 20% FCS/PBS to each well. 50 μl supernatants from in vitro stimulated cells were then added to the plates and incubated overnight at 4° C. After a washing step, 50 μl/well of the biotinylated second-step Ab was added. Plates were incubated for 1 h at room temperature and washed. The enzyme conjugate (streptavidin-peroxidase) was then added to each well. Plates were incubated at room temperature for 1 h, washed and 100 μl/well of substrate was added, (1 mg/ml ABTS). Plates were read on an ELISA reader at a wavelength of 405 nm after color development (Labsystems iEMS reader, Helsinki, Finland). […]
The inventors also wanted to know wether a lipopeptide epicutaneous application could enhance an humoral response elicited by CD4^+ T lymphocytes in immunised mice. […] At day 20, mice were sacrificed and the concentration of Ovalbumin-specific IgE immunoglobulin was measured in the serum of mice.

[3] = test system: CD8+ mediated T lymphocyte response; test: Priming of a CD8+ T lymphocyte response by epicutaneous lipopeptide application (IFN-γ by lymph node cells); assay type: in vivo, C57BL/6 mice; conditions: 1 mg on shaved abdomen once a day during one week, read one week later, vs untreated or vehicle; FIG. 3
Description: as §1
as §2, with “Plates were incubated at room temperature for 1 h, washed and 100 μl/well of substrate was added, (1 mg/ml ABTS).” left out
The inventors first wanted to know whether the epicutaneous application of a MHC class I restricted peptide formulated as a lipopeptide could prime a T CD8^+ lymphocyte mediated immune response in mice. […] One week after the last lipopeptide application, mice were sacrificed and the production of IFN-γ by skin draining lymph nodes cells was measured in vitro upon restimulation with the TRP2180-188 peptide.

[4] = test system: CD8+ mediated T lymphocyte response; test: Enhancement of a CD8+ T lymphocyte response after prior peptide immunisation (IFN-γ by lymph node cells); assay type: in vivo; conditions: mice previously immunised s.c. with 25 μg TRP2180-188 peptide in CFA; 1 mg lipopeptide on skin for 3 days; day 30; FIG. 4
Description: as §1, §2
The inventors next wanted to evaluate the capacity of the TRP2180-188 lipopeptide treatment to enhance a prior immunisation of mice with the TRP2180-188 peptide. […] At day 30, mice were sacrificed and the production of IFN-γ by skin draining lymph nodes cells was measured in vitro upon restimulation with the TRP2180-188 peptide.

| Substance | activated (CD25+) OVA-specific (KJ1-26+) T cells in draining lymph nodes [1] | serum concentration of Ovalbumin-specific IgE [2] | production of IFN-γ by skin draining lymph nodes cells upon restimulation with the TRP2180-188 peptide [3] | production of IFN-γ by skin draining lymph nodes cells upon restimulation with the TRP2180-188 peptide [4] |
| --- | --- | --- | --- | --- |
| OVA323-339-lipopeptide (KISQAVHAAHAEINEAG; also: lipid moiety, structure and place not given here; UniProt P01012 323-339, looked up, fragment) [peptide 323-339 from Ovalbumin, MHC Class II I-A^d restricted, formulated as lipopeptide; purchased from Bachem] | accumulation of activated (CD25^+) OVA-specific (KJ1-26^+) only in the ear draining-lymph node treated with the lipopeptide | increase in the serum concentration of Ovalbumin specific IgE | – | – |
| TRP2180-188 lipopeptide (SVYDFFVWL; also: lipid moiety, structure and place not given here; UniProt P29812 180-188, looked up, fragment) [lipopeptide derived from the tyrosinase related protein-2, restricted to the H2-K^b molecule; purchased from Bachem] | – | – | high amounts of IFN-γ were produced | enhancement of the IFNγ production |
